Experimental data taken from PMC12471853, “New Marine Actinobacteria Strain, Micromonospora sp. SH-82: Characterization, Specialized Metabolites and Biological Activities” (Microorganisms, 2025).
Read-outs that look alike come from different tables or passages of the source.

Columns and labels:
[1] = tested on: Plasmodium falciparum 3D7; test: Antiplasmodial activity, in vitro culture of chloroquine-sensitive strain; assay type: cell-based
Description: Biological activity assays were conducted on microbial extract from Micromonospora sp. SH-82 and on isolated compounds 1, 2, 3, and 5. The tests focused on antiplasmodial and cytotoxic activity. Detailed protocols for these activity tests can be found in reference. The antiplasmodial activity was conducted by using in vitro cultures of the chloroquine-sensitive 3D7 strain of Plasmodium falciparum (BEI Resources, Manassas, VA, USA) following the methodology of Trager and Jensen. The assays were performed in three independent experiments (n = 3), each conducted in duplicate. Artemisinin was used as the positive control, while DMSO served as the vehicle and negative control, representing 100% parasite growth. Untreated red blood cells were also included as a blank. The measurements consisted of determining the concentration required to inhibit 50% of parasite growth (IC50), expressed in µg/mL for the crude extract and in µM for the isolated compounds. IC50 values were calculated via simple linear regression.

[2] = Cytotoxic activity, CellTiter Glo luminescent cell viability assay, 72 h; assay type: cell-based; settings: human, read-out: Percentage of Cell Viability
Description: (§1) Biological activity assays were conducted on microbial extract from Micromonospora sp. SH-82 and on isolated compounds 1, 2, 3, and 5. The tests focused on antiplasmodial and cytotoxic activity. Detailed protocols for these activity tests can be found in reference. The cytotoxic activity was performed on human colorectal HCT-116 and mammary MDA-MB-231 carcinoma cells. Human HCT-116 colorectal carcinoma cells were grown in Gibco McCoy’s 5A supplemented with 10% fetal calf serum and 1% glutamine. MDA-MB231 breast carcinomas were grown in RPMI 1640 supplemented with 10% fetal calf serum and 1% glutamine. Human hTERT-RPE1 cells were cultured in DMEM/F12 medium containing 10% fetal calf serum and 1% glutamine, enabling their impact on a healthy cell line. Cell lines were maintained at 37 °C in a humidified atmosphere containing 5% CO2. Cell viability was determined via a luminescent assay according to the manufacturer’s instructions (Promega, Madison, WI, USA). Briefly, the cells were seeded in 96-well plates (2.5 × 10^3 cells/well) containing 90 μL of growth medium. After 24 h of culture, the cells were treated with the tested compounds at 10 and 1 μg/mL (extracts) or at 10 and 1 μM (pure compounds) final concentrations. Control cells were treated with the vehicle (DMSO), and no effect was observed from DMSO diluted at 1/1000. After 72 h of incubation, 100 μL of CellTiter Glo Reagent was added for 15 min before recording luminescence with a spectrophotometric plate reader PolarStar Omega (BMG LabTech, Ortenberg, Germany). The percent viability index was evaluated by two independent assays in triplicate.

RPE1 cell line = test: Cytotoxicity on non-cancerous cell line, CellTiter Glo luminescent cell viability assay, 72 h; assay type: cell-based, human; settings: RPE1; 10 and 1 µM (compounds) or 10 and 1 µg/mL (extract)
Description: as §1

[3] = as above; assay type: cell-based, human; settings: human, hTERT-RPE1 cells (non-cancerous cell line), 72 h, read-out: Percentage of Cell Viability; for viability at 72 h, 1 µM: RPE1, pure compounds at 1 µM; for viability at 72 h, 10 µM: RPE1, pure compounds at 10 µM
Description: as §1

[4] = Stability check of compound 5 by new NMR and ESI+-HRMS analyses; assay type: physicochemical; settings: re-analysis by NMR and ESI+-HRMS prior to biological assays, one year later (Figure S43)
Description: Prior to conducting biological assays, it was necessary to ascertain the stability of compound 5. To this end, new NMR and ESI^+-HRMS analyses were recorded (Figures S38–S43). […] The first one could be identified as the 9-hydroxy derivative of 5 and, thus, to 6,9-hemiacetal-9-hydroxy-10,11-anhydroerythronolide B (5.1) (Figure 2). The second one has a carbonyl in C-9 at δC 208.8 and, therefore, corresponds to the open form of the first one: 8-epi-10,11-anhydroerythronolide B (5.2) (Figure 2).

[5] = HCT-116 colorectal carcinoma cells, HCT-116, pure compounds at 1 µM
[6] = HCT-116 colorectal carcinoma cells, HCT-116, pure compounds at 10 µM
[7] = MDA-MB-231 breast carcinoma cells, MDA-MB-231, pure compounds at 1 µM
[8] = MDA-MB-231 breast carcinoma cells, MDA-MB-231, pure compounds at 10 µM

Compound	IC50 ([1]; 3D7, positive control, read-out: IC50 against Plasmodium falciparum 3D7 (converted)) [µg/mL]	viability at 72 h, 1 µM [2, 5] [%]	viability at 72 h, 10 µM [2, 6] [%]	viability at 72 h, 1 µM [2, 7] [%]	viability at 72 h, 10 µM [2, 8] [%]	toxicity towards healthy cells (in words) (RPE1 cell line)	viability at 72 h, 1 µM [3] [%]	viability at 72 h, 10 µM [3] [%]	IC50 ([1]; 3D7, Experiment 1, dose-response curve, Figure 8, read-out: IC50 against Plasmodium falciparum 3D7 (converted)) [µM]	IC50 ([1]; 3D7, Experiment 2, dose-response curve, Figure 8, read-out: IC50 against Plasmodium falciparum 3D7 (converted)) [µM]	IC50 ([1]; 3D7, Experiment 3, dose-response curve, Figure 8, read-out: IC50 against Plasmodium falciparum 3D7 (converted)) [µM]	IC50 ([1]; 3D7, IC50 obtained from the average dose-response curve, Figure 8, read-out: IC50 (mean curve)) [µM]	IC50 ([1]; 3D7, arithmetic mean ± SD of three independent assays, read-out: IC50 against Plasmodium falciparum 3D7 (converted)) [µM]	IC50 ([1]; 3D7, mean ± SD of three independent assays, read-out: IC50 against Plasmodium falciparum 3D7 (converted)) [µg/mL]	stability of the compound (in words) [4]
C[C@@H]1CC[C@H]2[C@@H](C)C(=O)O[C@@H]3O[C@@]4(C)CC[C@@H]1[C@]32OO4 [Artemisinin, reference compound]	0.00636														
CC[C@H]1OC(=O)[C@H](C)[C@@H](O)[C@H](C)[C@@H](O)[C@](C)(O)C[C@@H](C)C(=O)[C@H](C)[C@@H](O)[C@H]1C [Compound 1, Erythronolide B]		101 ± 0.5	104 ± 1.16	107 ± 0.86	100 ± 0.76	No activity	102 ± 1.58	97.3 ± 1.03							
CC[C@H]1OC(=O)[C@H](C)[C@@H](O)[C@H](C)[C@@H](O)[C@@H](C)C[C@@H](C)C(=O)[C@H](C)[C@@H](O)[C@H]1C [Compound 2, 6-desoxyerythronolide B]		101 ± 1.62	103 ± 3.56	105 ± 1.56	101 ± 1.13	No activity	99.1 ± 1.4	95.3 ± 0.96							
CCC1OC(=O)C(C)C(OC2CC(C)(OC(C)=O)C(OC(C)=O)C(C)O2)C(C)C(OC2OC(C)CC(N(C)C)C2O)C(C)(OC2CC(N(C)C)C(O)C(C)O2)CC(C)C(=O)C(C)C(O)C1(C)O (stereo not drawn) [Compound 3, megalomicin C1]		100 ± 1.66	97.3 ± 2.22	102 ± 1.74	98.6 ± 1.38	No activity	104 ± 1.32	104 ± 1.94	3.61	9.54	5.96	6.31	6.37	6.12 ± 2.87	
CCC1OC(=O)C(C)C(O)C(C)C(O)C2(C)CC(C)C(OC)(O2)C(C)=CC1C (stereo not drawn) [Compound 5, 6,9-hemiacetal-9-O-methyl-10,11-anhydroerythronolide B]		99.1 ± 0.32	99.7 ± 0.59	100 ± 1.74	99 ± 3.28	No activity	103 ± 1.52	103 ± 1.77							a mixture of two compounds is observed
